Key:
[1] = target: T1, Ecdysteroid receptor complexes extracted from BII cells (Drosophila melanogaster, UniProt P34021); test: Cell-free receptor assay with receptor complexes extracted from BII cells; type: binding; conditions: ratio of Kd in cell-free BII extract to EC50 in BII bioassay
T1 sequence (P34021 1-878): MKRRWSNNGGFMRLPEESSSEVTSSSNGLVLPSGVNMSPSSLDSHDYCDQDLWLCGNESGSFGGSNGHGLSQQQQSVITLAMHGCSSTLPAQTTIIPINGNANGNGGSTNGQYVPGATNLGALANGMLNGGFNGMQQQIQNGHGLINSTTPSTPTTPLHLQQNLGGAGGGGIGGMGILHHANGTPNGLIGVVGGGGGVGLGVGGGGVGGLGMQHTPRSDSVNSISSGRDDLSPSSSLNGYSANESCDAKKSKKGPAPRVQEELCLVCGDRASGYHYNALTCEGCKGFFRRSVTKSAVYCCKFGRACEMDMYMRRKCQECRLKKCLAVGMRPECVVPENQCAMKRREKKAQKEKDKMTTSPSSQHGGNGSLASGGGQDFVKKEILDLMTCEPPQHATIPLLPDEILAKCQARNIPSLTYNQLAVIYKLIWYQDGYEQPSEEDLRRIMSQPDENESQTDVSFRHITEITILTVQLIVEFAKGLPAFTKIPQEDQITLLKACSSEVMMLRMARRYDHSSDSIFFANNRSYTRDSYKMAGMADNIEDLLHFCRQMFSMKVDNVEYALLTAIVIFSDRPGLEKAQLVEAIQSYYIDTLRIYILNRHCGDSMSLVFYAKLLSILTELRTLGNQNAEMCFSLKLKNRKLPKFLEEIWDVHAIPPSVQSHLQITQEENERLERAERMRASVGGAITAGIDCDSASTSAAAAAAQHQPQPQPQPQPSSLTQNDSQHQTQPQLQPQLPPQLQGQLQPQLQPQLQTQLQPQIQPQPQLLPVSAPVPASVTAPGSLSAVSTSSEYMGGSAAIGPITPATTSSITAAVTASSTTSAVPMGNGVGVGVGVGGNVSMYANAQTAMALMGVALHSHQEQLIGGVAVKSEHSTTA
T1 sequence (P20153 1-508 partner): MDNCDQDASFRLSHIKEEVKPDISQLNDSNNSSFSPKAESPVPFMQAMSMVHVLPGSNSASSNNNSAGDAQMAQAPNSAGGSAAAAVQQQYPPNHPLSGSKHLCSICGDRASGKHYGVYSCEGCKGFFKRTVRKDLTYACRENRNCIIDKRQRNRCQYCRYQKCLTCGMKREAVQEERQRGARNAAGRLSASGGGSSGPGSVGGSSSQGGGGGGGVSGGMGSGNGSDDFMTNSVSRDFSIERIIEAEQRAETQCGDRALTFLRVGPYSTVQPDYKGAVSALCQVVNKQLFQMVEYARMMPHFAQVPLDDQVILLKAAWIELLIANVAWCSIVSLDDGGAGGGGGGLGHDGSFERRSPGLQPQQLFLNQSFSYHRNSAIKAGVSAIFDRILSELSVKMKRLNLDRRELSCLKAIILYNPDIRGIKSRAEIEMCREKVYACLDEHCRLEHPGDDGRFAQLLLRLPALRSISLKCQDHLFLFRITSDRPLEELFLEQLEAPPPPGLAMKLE

[2] = tested on: insect EcR proteins when expressed in mammalian cells and partnered by RXR; conditions: altered ligand specificity and affinity; no reference given; cited from earlier work
[3] = type: physicochemical; conditions: after attempted synthesis
[4] = tested on: BII cells; conditions: ref Dinan, 1985; cited from earlier work

In the case of CC(C)CC[C@@H](O)[C@](C)(O)[C@H]1CC[C@@]2(O)C3=CC(=O)[C@]4(O)C[C@@H](O)[C@@H](O)C[C@]4(C)[C@H]3[C@H](O)C[C@]12C [compound 9, muristerone A], the Kd/EC50 [1] is listed as “very low” and the “activity with insect EcR/RXR in mammalian cells” value [2] is listed as “active, but micromolar concentrations are required”.
With CC(C)(O)CC[C@@H](O)[C@](C)(O)[C@H]1CC[C@@]2(O)C3=CC(=O)[C@@H]4C[C@@H](O)[C@@H](O)C[C@]4(C)[C@H]3[C@H](O)C[C@]12C [compound 1, turkesterone] the Kd/EC50 [1] was “very low”.
With CC(C)CC[C@@H](O)[C@](C)(O)[C@H]1CC[C@@]2(O)C3=CC(=O)[C@@H]4C[C@@H](O)[C@@H](O)C[C@]4(C)[C@H]3[C@H](O)C[C@]12C [compound 8, ajugasterone C] the Kd/EC50 [1] was “very low”.
With CC(C)(O)CC[C@@H](O)[C@](C)(O)[C@H]1CC[C@@]2(O)C3=CC(=O)[C@@H]4C[C@@H](O)[C@@H](O)C[C@]4(C)[C@H]3[C@H](OC(=O)c3ccccc3)C[C@]12C [turkesterone 11α-benzoate] the stability of product [3] was “unstable, degrading rapidly back to turkesterone”.
In the case of CC(C)(O)CC[C@@H](O)[C@](C)(O)[C@H]1CC[C@@]2(O)C3=CC(=O)[C@@H]4C[C@@H](O)[C@@H](O)C[C@]4(C)[C@H]3CC[C@]12C [compound 6, 20-hydroxyecdysone], the “metabolism by BII cells” value [4] is given as “do not metabolise”.
